“And” between values parts separate entries of the source, which are not always exact repeats. Identical values can stand only once. Toxic doses and inconclusive results are not listed. Rule for the calls: active = survival T/C of 150% or more; inactive = T/C below 125% in these data. Square brackets hold non-standard residues; d marks the D form. Peptide text beside a SMILES is read from it. Hpg = N[CH](C(=O)O)c1ccc(O)cc1
Test system: P388 leukemia ip, CD2F1 mice, survival T/C
Experiment: NCI In Vivo Anticancer Drug Screen. Data for tumor model P388 Leukemia (intraperitoneal) in CD2F1 (CDF1) mice
Conditions: endpoint: median survival time, higher = longer survival
How it was run: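 Mice carrying the transplanted tumor received test compound or vehicle. Survival was recorded in each group, and the value is the treated-group measurement divided by that of the vehicle-treated control group.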

[1] = dose: 50.0 mg/kg/injection, schedule: Q01DX005 (ip), vehicle: Klucel (hydroxypropylcellulose) (HPC)
[2] = dose: 100.0 mg/kg/injection, schedule: Q01DX005 (ip), vehicle: Klucel (hydroxypropylcellulose) (HPC)
[3] = dose: 200.0 mg/kg/injection, schedule: Q01DX005 (ip), vehicle: Klucel (hydroxypropylcellulose) (HPC)
[4] = dose: 50.0 mg/kg/injection, schedule: Q01DX009 (ip), vehicle: saline
[5] = dose: 100.0 mg/kg/injection, schedule: Q04DX003 (ip), vehicle: Klucel (hydroxypropylcellulose) (HPC)
[6] = dose: 200.0 mg/kg/injection, schedule: Q04DX003 (ip), vehicle: Klucel (hydroxypropylcellulose) (HPC)
[7] = dose: 400.0 mg/kg/injection, schedule: Q04DX003 (ip), vehicle: Klucel (hydroxypropylcellulose) (HPC)
[8] = dose: 100.0 mg/kg/injection, schedule: Q01DX005 (ip), vehicle: saline with Tween-80
[9] = dose: 50.0 mg/kg/injection, schedule: Q01DX005 (ip), vehicle: saline with Tween-80
[10] = dose: 200.0 mg/kg/injection, schedule: Q01DX005 (ip), vehicle: saline with Tween-80
[11] = dose: 50.0 mg/kg/injection, schedule: Q01DX009 (ip), vehicle: Klucel (hydroxypropylcellulose) (HPC)
[12] = dose: 100.0 mg/kg/injection, schedule: Q01DX009 (ip), vehicle: Klucel (hydroxypropylcellulose) (HPC)
[13] = dose: 50.0 mg/kg/injection, schedule: Q01DX009 (ip), vehicle: saline with Tween-80
[14] = dose: 100.0 mg/kg/injection, schedule: Q01DX009 (ip), vehicle: saline with Tween-80
[15] = dose: 200.0 mg/kg/injection, schedule: Q01DX009 (ip), vehicle: saline with Tween-80
[16] = dose: 60.0 mg/kg/injection, schedule: Q01DX005 (ip), vehicle: saline with Tween-80
[17] = dose: 120.0 mg/kg/injection, schedule: Q01DX005 (ip), vehicle: saline with Tween-80
[18] = dose: 240.0 mg/kg/injection, schedule: Q01DX005 (ip), vehicle: saline with Tween-80

Measured: T/C

O=C1OC(=O)C2CC3C(CC12)C1(Cl)C(Cl)=C(Cl)C3(Cl)C1(Cl)Cl (stereo not drawn)
inactive: [1] 104 % of control | [2] 100 % of control | [3] 107 % of control

O=C1NC(=O)C2(CC3CCCC(C2)N3)N1 (stereo not drawn)
inactive: dose: 100.0 mg/kg/injection, schedule: Q04DX003 (ip), vehicle: water 101 % of control | dose: 200.0 mg/kg/injection, schedule: Q04DX003 (ip), vehicle: water 99 % of control | dose: 400.0 mg/kg/injection, schedule: Q04DX003 (ip), vehicle: water 103 % of control

COc1cc2c(cc1C(C)c1cc(OC)c(OC)c(OC)c1)OCO2 (stereo not drawn)
inactive: [1] 99 % of control | [2] 97 % of control | [3] 91 % of control

COc1cccc(C[n+]2ccccc2C#N)c1
inactive: dose: 12.5 mg/kg/injection, schedule: Q01DX009 (ip), vehicle: saline 100 % of control | dose: 25.0 mg/kg/injection, schedule: Q01DX009 (ip), vehicle: saline 106 % of control | [4] 100 % of control and 96 % of control

CCOC(=O)NC1CCc2ccccc2C1 (stereo not drawn)
inactive: [5] 98 % of control | [6] 108 % of control | [7] 95 % of control

Nc1cccc2c1-c1ccccc1C2=O
inactive: dose: 6.25 mg/kg/injection, schedule: Q01DX005 (ip), vehicle: saline with Tween-80 98 % of control | dose: 12.5 mg/kg/injection, schedule: Q01DX005 (ip), vehicle: saline with Tween-80 98 % of control | dose: 25.0 mg/kg/injection, schedule: Q01DX005 (ip), vehicle: saline with Tween-80 92 % of control | [8] 92 % of control

C/C(CC(C)C(=O)O)=N/NC(N)=O (stereo not drawn)
inactive: [1] 97 % of control | [2] 97 % of control | [3] 97 % of control

COC(OC)C(C(=O)c1ccc(OCc2ccccc2)cc1O)c1cc2c(cc1OCc1ccccc1)OCO2 (stereo not drawn)
inactive: [5] 96 % of control | [6] 101 % of control | [7] 98 % of control

COc1ccc(/C=C/C(=O)c2ccccc(=O)c2O)c(OC)c1OC
inactive: dose: 25.0 mg/kg/injection, schedule: Q01DX005 (ip), vehicle: Klucel (hydroxypropylcellulose) (HPC) 105 % of control | [1] 99 % of control | [2] 109 % of control | [3] 108 % of control

CC(C)CC(N)C(=O)NC(C(N)=O)c1ccc(O)cc1 (stereo not drawn) (H-Leu-[Hpg]-NH2; configuration not given here)
inactive: [4] 101 % of control | dose: 100.0 mg/kg/injection, schedule: Q01DX009 (ip), vehicle: saline 92 % of control | dose: 200.0 mg/kg/injection, schedule: Q01DX009 (ip), vehicle: saline 88 % of control

CCOc1ccc2c(c1)/C(=C\C=C\C1CC(C)C3CC(OCC)CCC3N1CC)CC(C)N2CC (stereo not drawn)
inactive: dose: 1.25 mg/kg/injection, schedule: Q01DX009 (ip), vehicle: saline + alcohol 120 % of control

Cc1ccc2ccccc2[n+]1CC(=O)c1ccc2c(c1)OCO2
inactive: [9] 110 % of control | [8] 105 % of control | [10] 103 % of control

COc1ccc2c(c1)C(c1ccccc1)SC(c1ccccc1)=C2 (stereo not drawn)
inactive: [11] 107 % of control | [12] 100 % of control | dose: 200.0 mg/kg/injection, schedule: Q01DX009 (ip), vehicle: Klucel (hydroxypropylcellulose) (HPC) 99 % of control

C=C(C)c1cc2cc(C(C)=O)ccc2o1
inactive: dose: 2.25 mg/kg/injection, schedule: Q01DX009 (ip), vehicle: Klucel (hydroxypropylcellulose) (HPC) 108 % of control | dose: 4.5 mg/kg/injection, schedule: Q01DX009 (ip), vehicle: Klucel (hydroxypropylcellulose) (HPC) 115 % of control | dose: 9.0 mg/kg/injection, schedule: Q01DX009 (ip), vehicle: Klucel (hydroxypropylcellulose) (HPC) 97 % of control | dose: 18.0 mg/kg/injection, schedule: Q01DX009 (ip), vehicle: Klucel (hydroxypropylcellulose) (HPC) 115 % of control | dose: 36.0 mg/kg/injection, schedule: Q01DX009 (ip), vehicle: Klucel (hydroxypropylcellulose) (HPC) 113 % of control

CNc1ccc(F)cc1SSc1cc(F)ccc1NC
inactive: dose: 25.0 mg/kg/injection, schedule: Q01DX009 (ip), vehicle: Klucel (hydroxypropylcellulose) (HPC) 108 % of control | [11] 110 % of control | [12] 115 % of control

CN1C(=O)N/C(=C2/CCOC2=O)C1=O
inactive: [13] 106 % of control | [14] 88 % of control | [15] 98 % of control

CC(C)(C)N=C(CC(=NC(C)(C)C)Nc1ccccc1Cl)Nc1ccccc1Cl
inactive: [13] 91 % of control | [14] 92 % of control | [15] 86 % of control

CN(C)c1c(-c2ccc(Cl)cc2)cc(-c2ccccc2)[nH]c1=O
inactive: dose: 1.56 mg/kg/injection, schedule: Q01DX009 (ip), vehicle: Klucel (hydroxypropylcellulose) (HPC) 101 % of control | dose: 3.13 mg/kg/injection, schedule: Q01DX009 (ip), vehicle: Klucel (hydroxypropylcellulose) (HPC) 101 % of control | dose: 6.25 mg/kg/injection, schedule: Q01DX009 (ip), vehicle: Klucel (hydroxypropylcellulose) (HPC) 100 % of control | dose: 12.5 mg/kg/injection, schedule: Q01DX009 (ip), vehicle: Klucel (hydroxypropylcellulose) (HPC) 99 % of control and 89 % of control | [11] 101 % of control | [12] 106 % of control

CCOC1(C)OC2OC(COC(C)=O)C(OC(C)=O)C(OC(C)=O)C2O1 (stereo not drawn)
inactive: dose: 4.0 mg/kg/injection, schedule: Q01DX009 (ip), vehicle: other 95 % of control | dose: 8.0 mg/kg/injection, schedule: Q01DX009 (ip), vehicle: other 99 % of control | dose: 16.0 mg/kg/injection, schedule: Q01DX009 (ip), vehicle: other 102 % of control | dose: 32.0 mg/kg/injection, schedule: Q01DX009 (ip), vehicle: other 104 % of control | dose: 50.0 mg/kg/injection, schedule: Q01DX009 (ip), vehicle: other 95 % of control | dose: 64.0 mg/kg/injection, schedule: Q01DX009 (ip), vehicle: other 98 % of control | dose: 100.0 mg/kg/injection, schedule: Q01DX009 (ip), vehicle: other 100 % of control | dose: 200.0 mg/kg/injection, schedule: Q01DX009 (ip), vehicle: other 104 % of control | dose: 400.0 mg/kg/injection, schedule: Q01DX009 (ip), vehicle: other 95 % of control

O=C(/C=C/C1N=C1c1ccccc1)c1ccccc1 (stereo not drawn)
inactive: dose: 25.0 mg/kg/injection, schedule: Q01DX001 (ip), vehicle: Klucel (hydroxypropylcellulose) (HPC) 100 % of control | dose: 50.0 mg/kg/injection, schedule: Q01DX001 (ip), vehicle: Klucel (hydroxypropylcellulose) (HPC) 107 % of control | dose: 100.0 mg/kg/injection, schedule: Q01DX001 (ip), vehicle: Klucel (hydroxypropylcellulose) (HPC) 106 % of control and 107 % of control

CC1=NN(C(=O)c2ccncc2)C(=O)C1N=Nc1ccccc1C (stereo not drawn)
inactive: [13] 95 % of control | [14] 94 % of control | [15] 94 % of control

CC12C(=O)OC(=O)C1CCc1c2ccc2ccccc12 (stereo not drawn)
inactive: [9] 107 % of control | [8] 110 % of control | [10] 107 % of control

Cc1oc2ccccc2c(=O)c1CO
inactive: [16] 104 % of control | [17] 100 % of control | [18] 100 % of control

COC1=CS(C)(=O)=CC(SC)=C1C#N (stereo not drawn)
inactive: dose: 50.0 mg/kg/injection, schedule: Q04DX002 (ip), vehicle: Klucel (hydroxypropylcellulose) (HPC) 99 % of control | dose: 100.0 mg/kg/injection, schedule: Q04DX002 (ip), vehicle: Klucel (hydroxypropylcellulose) (HPC) 99 % of control | dose: 200.0 mg/kg/injection, schedule: Q04DX002 (ip), vehicle: Klucel (hydroxypropylcellulose) (HPC) 98 % of control

C[n+]1ccccc1C1(O)CCCC1
inactive: [13] 94 % of control | [14] 100 % of control | [15] 100 % of control

CC1(C)C2CCC1(C)C(O)C2N (stereo not drawn)
inactive: dose: 30.0 mg/kg/injection, schedule: Q01DX005 (ip), vehicle: saline with Tween-80 93 % of control | [16] 94 % of control and 95 % of control

CC1(C)CN(Cc2ccccc2)C1(C)C#N (stereo not drawn)
inactive: [16] 100 % of control | [17] 105 % of control

Cc1nc(N(C)C)oc(=O)c1Cc1ccccc1
inactive: [16] 102 % of control | [17] 100 % of control | [18] 100 % of control

— PubChem BioAssay AID330 (DTP/NCI, 2004)
